Measured values from the NIST ThermoML archive (doi:10.1016/j.fluid.2010.10.009).

Key:
[1] = 303.15 K; 101.33 kPa; Liquid; Concentric cylinders viscometry
[2] = xn = mol fraction of the nth substance listed; settings: 101 kPa, Liquid, Concentric cylinders viscometry

CCCCCCCCCC [decane]
Settings	viscosity [mPa·s]
[1]	0.7838

CC(C)(C)O [2-methylpropan-2-ol] + CCCCCCCCCC
[2], x1 = 1
Settings	viscosity [mPa·s]
303.15 K	3.387
308.15 K	2.63
313.15 K	2.097
318.15 K	1.707
323.15 K	1.415

CC(C)(C)O [2-methylpropan-2-ol] + CCCCCCC
viscosity [mPa·s], [2]
Settings	303.15 K	308.15 K	313.15 K	318.15 K	323.15 K
x1 = 0.103	0.3899	0.3703	0.353	0.3329	0.3144
x1 = 0.2002	0.4118	0.3885	0.367	0.3441	0.3201
x1 = 0.3006	0.4501	0.4228	0.3983	0.3737	0.3489
x1 = 0.3999	0.4922	0.463	0.433	0.4062	0.3805
x1 = 0.5001	0.558	0.5194	0.4838	0.4507	0.419
x1 = 0.6001	0.6624	0.6063	0.5587	0.5157	0.4765
x1 = 0.6996	0.8071	0.7282	0.667	0.6022	0.5477
x1 = 0.8001	1.1	0.9711	0.8581	0.7681	0.6836
x1 = 0.9	1.699	1.426	1.214	1.044	0.9079
x1 = 0.95	2.263	1.86	1.541	1.293	1.096
x1 = 1	3.387	2.63	2.097	1.707	1.415

CC(C)(C)O [2-methylpropan-2-ol] + CCCCCCCCC
[2], x1 = 1
Settings	viscosity [mPa·s]
303.15 K	3.387
308.15 K	2.63
313.15 K	2.097
318.15 K	1.707
323.15 K	1.415

CC(C)(C)O [2-methylpropan-2-ol] + CCCCCCCC
viscosity [mPa·s], [2]
Settings	303.15 K	308.15 K	313.15 K	318.15 K	323.15 K
x1 = 0.1002	0.5022	0.4758	0.4509	0.4272	0.4044
x1 = 0.2002	0.5263	0.4972	0.47	0.4443	0.4198
x1 = 0.2996	0.558	0.525	0.4943	0.4656	0.4377
x1 = 0.4003	0.6031	0.5644	0.5287	0.4956	0.4646
x1 = 0.5006	0.6658	0.6186	0.5757	0.5363	0.5
x1 = 0.5998	0.7587	0.6975	0.6429	0.5938	0.549
x1 = 0.7	0.912	0.8243	0.7485	0.6822	0.6233
x1 = 0.799	1.187	1.044	0.9254	0.8261	0.7415
x1 = 0.8499	1.438	1.236	1.075	0.9428	0.833
x1 = 0.9	1.781	1.496	1.275	1.099	0.958
x1 = 0.9235	2.015	1.669	1.404	1.198	1.034
x1 = 0.9499	2.353	1.913	1.584	1.333	1.136
x1 = 1	3.387	2.63	2.097	1.707	1.415

CCCCCCCCC [nonane] + CC(C)(C)O
viscosity [mPa·s], [2]
Settings	303.15 K	308.15 K	313.15 K	318.15 K	323.15 K
x2 = 0	0.6323	0.5974	0.5652	0.5352	0.5073
x2 = 0.1012	0.6377	0.5996	0.5644	0.532	0.502
x2 = 0.2008	0.6593	0.6177	0.5795	0.5442	0.5114
x2 = 0.3	0.6872	0.6414	0.5995	0.5608	0.5247
x2 = 0.3999	0.7276	0.676	0.6289	0.5857	0.5459
x2 = 0.4995	0.7904	0.7297	0.6749	0.6251	0.5795
x2 = 0.5998	0.8796	0.8038	0.7366	0.6766	0.6227
x2 = 0.6991	1.027	0.923	0.8336	0.7558	0.6874
x2 = 0.7997	1.297	1.136	1.003	0.8918	0.7976
x2 = 0.9	1.856	1.556	1.323	1.137	0.9883
x2 = 0.9494	2.392	1.944	1.608	1.351	1.151

CCCCCCCC [octane]
Settings	viscosity [mPa·s]
[1]	0.4918

CCCCCCCCC [nonane]
Settings	viscosity [mPa·s]
[1]	0.6323

CCCCCCC [heptane] + CC(C)(C)O
[2], x2 = 0
Settings	viscosity [mPa·s]
303.15 K	0.3773
308.15 K	0.3603
313.15 K	0.3432
318.15 K	0.3269
323.15 K	0.3106

CCCCCCCCCC [decane] + CC(C)(C)O
viscosity [mPa·s], [2]
Settings	303.15 K	308.15 K	313.15 K	318.15 K	323.15 K
x2 = 0	0.7838	0.7337	0.6883	0.6466	0.6085
x2 = 0.1003	0.7786	0.7263	0.6791	0.6362	0.597
x2 = 0.2001	0.7925	0.7382	0.6879	0.6422	0.6002
x2 = 0.3	0.825	0.7653	0.7104	0.6604	0.6153
x2 = 0.3997	0.8622	0.7934	0.7326	0.6775	0.627
x2 = 0.5	0.9148	0.8404	0.7726	0.7125	0.6566
x2 = 0.5999	0.9861	0.8974	0.8188	0.7493	0.6869
x2 = 0.6997	1.129	1.01	0.9091	0.8219	0.7459
x2 = 0.8001	1.372	1.199	1.058	0.9404	0.8399
x2 = 0.8999	1.937	1.621	1.376	1.182	1.024
x2 = 0.9499	2.366	1.948	1.614	1.357	1.155

CCCCCCCC [octane] + CC(C)(C)O
[2], x2 = 0
Settings	viscosity [mPa·s]
303.15 K	0.4918
308.15 K	0.4684
313.15 K	0.447
318.15 K	0.425
323.15 K	0.4049

CCCCCCC [heptane]
Settings	viscosity [mPa·s]
[1]	0.3773

CC(C)(C)O [2-methylpropan-2-ol]
Settings	viscosity [mPa·s]
[1]	3.387
